Data from patent EP3895695A1, “SUPERCRITICAL CARBON DIOXIDE-BASED METHODOLOGY TO FORMULATE BIOACTIVE PREPARATIONS” (Universidad Autónoma de Madrid, priority 2020, dated 2021).

Assays:
[1] = HPLC quantification of quercetin, rosmarinic acid and carnosic acid in BIOSAS lipid products; type: physicochemical; details: for amount dispersed in oil: rosemary BIOSAS dispersion
Text: Carnosic acid and rosmarinic acid were identified and quantified in the case of BIOSAS rosemary samples following the procedures described by […]. Garcia-Risco, T. Fornari, G. Reglero, Isolation of carsonic acid from rosemary extracts using semi-preparative supercritical fluid chromatography, J. Chromatogr. A. 1286 (2013) 208-215. doi:10.1016/j.chroma.2013.02.044 using a HPLC Prominence-i LC-2030C 3D Plus (Shimadzu) equipped with a RP-C18 (250 × 4.6 mm; 3 μm) chromatography column. The mobile phase consisted of 0.1 % of phosphoric acid in water (solvent A) and acetonitrile (solvent B) applying the following gradient: 0-8 min, 77 % A, 8-25 min, 25 % A, 25-40 min 25 % A and the 40-45 min 77 % A. Initial conditions were gained in 5 min. The flow rate was constant at 0.7 ml/min. Injection volume was 20 μl and the detection was accomplished using a diode array detection system, storing the signal at a wavelength of 230, 280 and 350 nm. In the case of quercetin BIOSAS dispersion, HPLC analysis was carried out as previously described by Wei et al.. A Prominence-i LC-2030C 3D Plus (Shimadzu) equipped with a quaternary solvent delivery system, an autosampler and DAD detector and RP-C18 (250 × 4.6 mm; 3 μm) was used. The column temperature was set at 25 °C. The mobile phase consists of acetonitrile (A) and 0.026% aqueous H3PO4 (v/v), applying the following gradient elution: at 0-20 min, 20%-25% A, 20-30 min, 25%-34% A, 30-50 min, 34%-50% A, 50-60 min, 50%-60% A and 60-80 min, 60% A. After 5 min, the initial conditions were achieved. The flow rate was 0.7 ml/min and was kept constant during analysis. Injection volume was 20 μl and detection was accomplished at 254, 280 and 370 nm.

mice = details: intravenous administration; cited from earlier work

concentration of quercetin in the flaxseed oil ([1]; HPLC analysis, BIOSAS 20 MPa, 313.15 K) [% mass] | amount dispersed by BIOSAS process ([1]; in high molecular weight triacylglycerols (flaxseed oil), 313.15 K) [mg/g] | SMILES | amount dispersed in oil ([1]; argan oil) [mg/g] | amount dispersed in oil ([1]; flaxseed oil) [mg/g] | LD50 (mice) [mg/kg]
– | – | CC(C)c1cc2c(c(O)c1O)[C@@]1(C(=O)O)CCCC(C)(C)[C@@H]1CC2 [carnosic acid, Carnosic acid] | 4.90 | 6.39 | –
– | – | O=C(/C=C/c1ccc(O)c(O)c1)O[C@H](Cc1ccc(O)c(O)c1)C(=O)O [rosmarinic acid] | ~0.40 | 0.51 | 561
1.55 ± 0.05 | > 15 | O=c1c(O)c(-c2ccc(O)c(O)c2)oc2cc(O)cc(O)c12 [quercetin, 2-(3,4-Dihydroxyphenyl)-3,5,7-trihydroxy-4H-1-benzopyran-4-one,3,3',4',5,6-Pentahydroxyflavone - Quercetin] | – | – | –
